Reference: patent publication US20230406843A1, “Progranulin Modulators and Methods of Using the Same” (ARKUDA THERAPEUTICS, priority 2020, published 2023)

tested on: progranulin; test: Progranulin induction cellular assay (ELISA of secreted mouse PGRN); format: cell-based; settings: Mus musculus, BV-2, read-out: EC50 μM
Procedure: Cellular Assays: Progranulin induction assay. To measure the efficacy of compounds, a progranulin induction cellular assay in mouse primary microglia (pMG), primary cortical neurons, and BV-2 cell lines is used. BV-2 cells are split the day before plating into a 96 well plate format at approximately 80%. Cells should be plated the day before and allowed for 1 hour attachment period and for 16 hour incubation. Levels of progranulin secreted into the cell culture medium or retained in the cell lysate can be quantified using an ELISA-based readout and measurement of secreted mouse PGRN in the medium was assessed by the methodology published by Ghidoni et al. 2012. Standard ELISA kits to measure PGRN are available from vendors such as Adipogen, R&D, and Biovendor.
Table B below presents the results of a progranulin induction assay as described above.

Structure (SMILES) | EC50
CCNC[C@]1(O)CO[C@H](C(=O)N2CCc3ccccc3[C@@H]2c2ccc(F)cc2)C1 [Compound 5024, ((2S,4S)-4-((ethylamino)methyl)-4-hydroxytetrahydrofuran-2-yl)((S)-1-(4-fluorophenyl)-3,4-dihydroisoquinolin-2(1H)-yl)methanone] | 0.749 µM
CCNC[C@@]1(O)CO[C@H](C(=O)N2CCc3ccccc3[C@@H]2c2ccc(F)cc2)C1 [Compound 5031, ((2S,4R)-4-((ethylamino)methyl)-4-hydroxytetrahydrofuran-2-yl)((S)-1-(4-fluorophenyl)-3,4-dihydroisoquinolin-2(1H)-yl)methanone] | 0.326 µM

same assay, conditions: progranulin induction assay; mouse pMG, primary cortical neurons and BV-2 cell lines named, cell type not given; ELISA-based readout; read-out: EC50

Structure (SMILES) | EC50
N[C@H]1COC(C(=O)N2CCc3ccccc3[C@@H]2c2ccc(F)cc2)C1 (stereo in doubt) [Compound 5010, ((2S,4R)-4-aminotetrahydrofuran-2-yl)((S)-1-(4-fluorophenyl)-3,4-dihydroisoquinolin-2(1H)-yl)methanone] | 0.573 µM
N[C@@H]1COC(C(=O)N2CCc3ccccc3[C@@H]2c2ccc(F)cc2)C1 (stereo in doubt) [Compound 5011, ((2S,4S)-4-aminotetrahydrofuran-2-yl)((S)-1-(4-fluorophenyl)-3,4-dihydroisoquinolin-2(1H)-yl)methanone] | 1.66 µM
NC1CCC(C(=O)N2CCc3ccccc3[C@@H]2c2ccc(F)cc2F)OC1 (stereo in doubt) [Compound 5018, ((2R,5S)-5-aminotetrahydro-2H-pyran-2-yl)((R)-1-(2,4-difluorophenyl)-3,4-dihydroisoquinolin-2(1H)-yl)methanone] | > 10 µM
N[C@@]12CC[C@@](C(=O)N3CCc4ccccc4C3c3ccc(F)cc3)(C1)OC2 (stereo in doubt) [Compound 5020, (4-amino-2-oxabicyclo[2.2.1]heptan-1-yl)((S)-1-(4-fluorophenyl)-3,4-dihydroisoquinolin-2(1H)-yl)methanone] | 1.06 µM
N[C@@]12CC[C@@](C(=O)N3CCc4ccccc4[C@H]3c3ccc(F)cc3)(C1)OC2 (stereo in doubt) [Compound 5022, (4-amino-2-oxabicyclo[2.2.1]heptan-1-yl)((S)-1-(4-fluorophenyl)-3,4-dihydroisoquinolin-2(1H)-yl)methanone] | 4.16 µM
NC[C@@H]1CC[C@H](C(=O)N2CCc3ccccc3[C@@H]2c2ccc(F)cc2)O1 [Compound 5000, ((2R,5S)-5-(aminomethyl)tetrahydrofuran-2-yl)((S)-1-(4-fluorophenyl)-3,4-dihydroisoquinolin-2(1H)-yl)methanone] | 0.41 µM
NC[C@@H]1CC[C@@H](C(=O)N2CCc3ccccc3[C@@H]2c2ccc(F)cc2)O1 [Compound 5003, ((2S,5S)-5-(aminomethyl)tetrahydrofuran-2-yl)((S)-1-(4-fluorophenyl)-3,4-dihydroisoquinolin-2(1H)-yl)methanone] | 0.509 µM
COCCN[C@@H]1CC[C@@H](C(=O)N2CCc3ccccc3[C@@H]2c2ccc(F)cc2)OC1 [Compound 5035, ((S)-1-(4-fluorophenyl)-3,4-dihydroisoquinolin-2(1H)-yl)((2S,5R)-5-((2-methoxyethyl)amino)tetrahydro-2H-pyran-2-yl)methanone] | 0.371 µM

Continued, values first:

EC50 | Structure (SMILES)
0.37 µM | NCC1COC(C(=O)N2CCc3ccccc3[C@@H]2c2ccc(F)cc2)C1 (stereo in doubt) [Compound 5009, ((2S,4R)-4-(aminomethyl)tetrahydrofuran-2-yl)((S)-1-(4-fluorophenyl)-3,4-dihydroisoquinolin-2(1H)-yl)methanone]
0.37 µM | COCCN[C@H]1CC[C@@H](C(=O)N2CCc3ccccc3[C@@H]2c2ccc(F)cc2)OC1 [Compound 5029, ((S)-1-(4-fluorophenyl)-3,4-dihydroisoquinolin-2(1H)-yl)((2S,5S)-5-((2-methoxyethyl)amino)tetrahydro-2H-pyran-2-yl)methanone]
0.369 µM | NCC1COC(C(=O)N2CCc3ccccc3[C@@H]2c2ccc(F)cc2)C1 (stereo in doubt) [Compound 5008, ((2S,4S)-4-(aminomethyl)tetrahydrofuran-2-yl)((S)-1-(4-fluorophenyl)-3,4-dihydroisoquinolin-2(1H)-yl)methanone]
0.356 µM | CCNC[C@]1(O)CO[C@@H](C(=O)N2CCc3ccccc3[C@@H]2c2ccc(F)cc2)C1 [Compound 5036, ((2R,4S)-4-((ethylamino)methyl)-4-hydroxytetrahydrofuran-2-yl)((S)-1-(4-fluorophenyl)-3,4-dihydroisoquinolin-2(1H)-yl)methanone]
0.348 µM | COCCN[C@H]1CC[C@H](C(=O)N2CCc3ccccc3[C@@H]2c2ccc(F)cc2)OC1 [Compound 5030, ((S)-1-(4-fluorophenyl)-3,4-dihydroisoquinolin-2(1H)-yl)((2R,5S)-5-((2-methoxyethyl)amino)tetrahydro-2H-pyran-2-yl)methanone]
0.323 µM | N[C@@H]1COC(C(=O)N2CCc3ccccc3[C@@H]2c2ccc(F)cc2)C1 (stereo in doubt) [Compound 5013, ((2R,4S)-4-aminotetrahydrofuran-2-yl)((S)-1-(4-fluorophenyl)-3,4-dihydroisoquinolin-2(1H)-yl)methanone]
0.278 µM | NC[C@H]1CC[C@H](C(=O)N2CCc3ccccc3[C@@H]2c2ccc(F)cc2)O1 [Compound 5002, ((2R,5R)-5-(aminomethyl)tetrahydrofuran-2-yl)((S)-1-(4-fluorophenyl)-3,4-dihydroisoquinolin-2(1H)-yl)methanone]
0.244 µM | NC[C@H]1CC[C@@H](C(=O)N2CCc3ccccc3[C@@H]2c2ccc(F)cc2)O1 [Compound 5001, ((2S,5R)-5-(aminomethyl)tetrahydrofuran-2-yl)((S)-1-(4-fluorophenyl)-3,4-dihydroisoquinolin-2(1H)-yl)methanone]
0.213 µM | O=C([C@@H]1CC[C@@H](NCCO)CO1)N1CCc2ccccc2[C@@H]1c1ccc(F)cc1 [Compound 5032, ((S)-1-(4-fluorophenyl)-3,4-dihydroisoquinolin-2(1H)-yl)((2S,5R)-5-((2-hydroxyethyl)amino)tetrahydro-2H-pyran-2-yl)methanone]
0.21 µM | NCC1(O)CCO[C@@H](C(=O)N2CCc3ccccc3[C@@H]2c2ccc(F)cc2)C1 (stereo in doubt) [Compound 5540, ((2R,4R)-4-(aminomethyl)-4-hydroxytetrahydro-2H-pyran-2-yl)((S)-1-(4-fluorophenyl)-3,4-dihydroisoquinolin-2(1H)-yl)methanone]
0.185 µM | O=C([C@H]1CC[C@H](NCCO)CO1)N1CCc2ccccc2[C@@H]1c1ccc(F)cc1 [Compound 5034, ((S)-1-(4-fluorophenyl)-3,4-dihydroisoquinolin-2(1H)-yl)((2R,5S)-5-((2-hydroxyethyl)amino)tetrahydro-2H-pyran-2-yl)methanone]
0.163 µM | O=C([C@@H]1CC[C@H](NCCO)CO1)N1CCc2ccccc2[C@@H]1c1ccc(F)cc1 [Compound 5033, ((S)-1-(4-fluorophenyl)-3,4-dihydroisoquinolin-2(1H)-yl)((2S,5S)-5-((2-hydroxyethyl)amino)tetrahydro-2H-pyran-2-yl)methanone]
0.125 µM | N[C@H]1COC(C(=O)N2CCc3ccccc3[C@@H]2c2ccc(F)cc2)C1 (stereo in doubt) [Compound 5012, ((2R,4R)-4-aminotetrahydrofuran-2-yl)((S)-1-(4-fluorophenyl)-3,4-dihydroisoquinolin-2(1H)-yl)methanone]
